In PubChem BioAssay (NCI) one finds TGI and GI50 data, which are given here for nine compounds.

“And” between values parts separate entries of the source, which are not always exact repeats. Equal values may be shown once.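 Each compound was tested at five concentrations against cells in 96-well plates for 48 hours. GI50 marks 50% less growth. At the TGI there is no net growth.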

Some test systems named below: A498 renal; HL-60(TB) leukemia; IGROV1 ovarian; M14 melanoma; NCI-H23 lung; PC-3 prostate; RPMI-8226 leukemia; SNB-19 CNS; SW-620 colon; TK-10 renal.
Common to all, as to assay: growth of human tumour cells (NCI), 48 h

For `COC1C(O)C(C)OC(OC2C(Oc3cccc4c(O)c5c(=O)oc6ccc(C)c7c(=O)oc(c34)c5c67)OC(C)C3O[C@H](c4ccccc4)OC32)C1O` (some centres undefined), the TGI in the assay with A498 renal amounted to 1.11 µM; in the assay with HL-60(TB) leukemia it was 4.53 µM; with IGROV1 ovarian it was 3.42 µM; in the assay with M14 melanoma it was 6.48 µM; with NCI-H23 lung it was 4.75 µM; in the assay with PC-3 prostate, 8.71 µM. Besides, the TGI with RPMI-8226 leukemia was 11.1 µM; in the assay with SNB-19 CNS, 19.2 µM; in the assay with SW-620 colon, 14.3 µM; in the assay with TK-10 renal, 7.37 µM. Further, the GI50 in the assay on M14 melanoma was 0.514 µM; in the assay on NCI-H23 lung it was 320 nM and 200 nM; in the assay with PC-3 prostate, 0.243 µM; with RPMI-8226 leukemia, 115 nM.

For `COc1cc2ccccc2c2cc([N+](=O)[O-])oc12`, the TGI in the assay on A498 renal was 0.342 µM; in the assay with HL-60(TB) leukemia it was above 31.2 µM; in the assay on IGROV1 ovarian, 7.19 µM; with M14 melanoma, 0.608 µM; with NCI-H23 lung, 4.18 µM; in the assay on PC-3 prostate it was above 100 µM. The TGI in the assay with RPMI-8226 leukemia is 14.7 µM; in the assay with SNB-19 CNS it was above 55.4 µM; in the assay with SW-620 colon, 15 µM; with TK-10 renal, 5.44 µM.

Take `O=C(/C=C/c1ccccc1)c1c[nH]c2ccccc2c1=O`: the GI50 in the assay with A498 renal is 2.3 µM; with HL-60(TB) leukemia it was 2810 nM; with IGROV1 ovarian, 3.67 µM; in the assay with M14 melanoma, 3.49 µM; in the assay on NCI-H23 lung it was 3170 nM; with PC-3 prostate, 5.63 µM. For the same compound, the GI50 with RPMI-8226 leukemia is 2230 nM; in the assay with SNB-19 CNS, 4.68 µM; in the assay with SW-620 colon, 2760 nM; in the assay on TK-10 renal, 2.08 µM. Moreover, the TGI in the assay on A498 renal came to 10.3 µM; in the assay on HL-60(TB) leukemia it was 10.6 µM; in the assay with IGROV1 ovarian, 16.4 µM; in the assay with M14 melanoma, 11.6 µM; in the assay on NCI-H23 lung, 15.2 µM; in the assay with PC-3 prostate, 33.1 µM. Moreover, the TGI in the assay on RPMI-8226 leukemia is 7.62 µM; with SNB-19 CNS it was 20.5 µM; with SW-620 colon it was 10 µM; in the assay on TK-10 renal it was 5.37 µM.

Turning to `COc1cc([N+](=O)[O-])c(S(=O)(=O)O)cc1NS(=O)(=O)c1ccc(C)cc1`, the TGI with A498 renal, in the assay with HL-60(TB) leukemia, with IGROV1 ovarian, in the assay on M14 melanoma, in the assay with NCI-H23 lung and in the assay on PC-3 prostate was above 100 µM throughout. Moreover, the TGI in the assay with RPMI-8226 leukemia, with SNB-19 CNS, in the assay with SW-620 colon and in the assay with TK-10 renal was above 100 µM in each case.

Take `COc1ccc2c(c1)[C@]1(C[C@H]1c1ccc3c(/C=C/c4ccc(CN5C[C@@H](C)O[C@@H](C)C5)cc4)n[nH]c3c1)C(=O)N2`: the GI50 is 2.34 µM in the assay on A498 renal; 2690 nM with HL-60(TB) leukemia; 9.69 µM in the assay with IGROV1 ovarian; 3.25 µM in the assay on M14 melanoma; 2870 nM with NCI-H23 lung; 2.54 µM with PC-3 prostate. In addition, the GI50 is 1590 nM in the assay on RPMI-8226 leukemia, 9.74 µM in the assay on SNB-19 CNS, 2460 nM in the assay with SW-620 colon and 11.8 µM in the assay with TK-10 renal. Besides, the TGI is 30.6 µM in the assay on A498 renal; 13.7 µM in the assay with HL-60(TB) leukemia; above 100 µM with IGROV1 ovarian; 20.6 µM in the assay on M14 melanoma; 31.8 µM in the assay with NCI-H23 lung; above 100 µM in the assay with PC-3 prostate. The TGI was above 100 µM in the assay on RPMI-8226 leukemia, above 100 µM in the assay with SNB-19 CNS, above 61 µM in the assay on SW-620 colon and above 61.3 µM in the assay with TK-10 renal.

For `NC1=NC(c2ccc(Cl)cc2)N(c2ccc(S(=O)(=O)Nc3ncccn3)cc2)C(N)=N1` (centres undefined), the TGI is above 100 µM in the assay with A498 renal; 1.08 µM in the assay on HL-60(TB) leukemia; above 100 µM in the assay with IGROV1 ovarian; above 100 µM in the assay on M14 melanoma; above 100 µM in the assay with NCI-H23 lung; above 100 µM with PC-3 prostate. Further, the TGI in the assay on RPMI-8226 leukemia, in the assay with SNB-19 CNS, in the assay with SW-620 colon and in the assay on TK-10 renal was above 100 µM each time.

`CCNC(C)(C)C(SS)c1ccc(Br)cc1` (centres undefined): the TGI was above 100 µM with A498 renal; 53 µM in the assay on HL-60(TB) leukemia; above 100 µM in the assay on IGROV1 ovarian; above 100 µM in the assay with M14 melanoma; above 100 µM with NCI-H23 lung; above 100 µM in the assay with PC-3 prostate. Further, the TGI with RPMI-8226 leukemia is 76.1 µM; in the assay with SNB-19 CNS, above 100 µM; with SW-620 colon, 56.2 µM; in the assay on TK-10 renal it was above 100 µM.

Consider `CN(Cc1cnc(N)nc1N)c1ccc(C(=O)O)cc1`, for which the GI50 in the assay on A498 renal was 4.25 µM; in the assay with HL-60(TB) leukemia it was above 100000 nM; in the assay on IGROV1 ovarian, above 100 µM; in the assay with M14 melanoma it was above 100 µM; with NCI-H23 lung, above 100000 nM; with PC-3 prostate, above 100 µM. Moreover, the GI50 in the assay with RPMI-8226 leukemia is above 100000 nM; with SNB-19 CNS it was above 100 µM; in the assay on SW-620 colon, above 100000 nM; with TK-10 renal, above 100 µM. Also, the TGI in the assay with A498 renal, in the assay on HL-60(TB) leukemia, in the assay on IGROV1 ovarian, with M14 melanoma, in the assay on NCI-H23 lung and with PC-3 prostate was above 100 µM each time. For the same compound, the TGI with RPMI-8226 leukemia, with SNB-19 CNS, with SW-620 colon and in the assay on TK-10 renal was above 100 µM throughout.

With `Cn1cc(C2=C(c3c4n(c5ccccc35)CCCC4)C(=O)NC2=O)c2ccccc21`, the GI50 with A498 renal is 5.19 µM; with HL-60(TB) leukemia, 9590 nM; in the assay on IGROV1 ovarian it was above 8.23 µM; with M14 melanoma, 13.4 µM; with NCI-H23 lung, above 18200 nM; with PC-3 prostate, 10.4 µM. Also, the GI50 with RPMI-8226 leukemia was above 15600 nM; in the assay with SNB-19 CNS, 20.6 µM; with SW-620 colon it was 8740 nM; in the assay with TK-10 renal, above 20.1 µM. The TGI in the assay with A498 renal, with HL-60(TB) leukemia, in the assay with IGROV1 ovarian, in the assay on M14 melanoma, in the assay on NCI-H23 lung and in the assay with PC-3 prostate was above 25 µM throughout. Also, the TGI in the assay with RPMI-8226 leukemia, with SNB-19 CNS, with SW-620 colon and in the assay with TK-10 renal was above 25 µM in each case.
